Laboratory results taken from PubChem BioAssay (NCI).
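The compound was tested at five concentrations on cells cultured in 96-well plates, with a 48-hour exposure period. TGI: total growth inhibition.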

Legend:
Assay in all cases: DTP human tumour cell line panel, 48 h
HOP-92 NSCLC = system: HOP-92 NSCLC
KM12 colon = system: KM12 colon
SNB-19 CNS = system: SNB-19 CNS
SR leukemia = system: SR leukemia
OVCAR-3 ovarian = system: OVCAR-3 ovarian
HCT-15 colon = system: HCT-15 colon
BT-549 breast = system: BT-549 breast
OVCAR-8 ovarian = system: OVCAR-8 ovarian
SK-OV-3 ovarian = system: SK-OV-3 ovarian
MOLT-4 leukemia = system: MOLT-4 leukemia
IGROV1 ovarian = system: IGROV1 ovarian
HCC-2998 colon = system: HCC-2998 colon
SK-MEL-28 melanoma = system: SK-MEL-28 melanoma
CAKI-1 renal = system: CAKI-1 renal
U251 CNS = system: U251 CNS
MCF7 breast = system: MCF7 breast
COLO 205 colon = system: COLO 205 colon
T-47D breast = system: T-47D breast
MDA-MB-435 = system: MDA-MB-435
NCI-H23 lung = system: NCI-H23 lung
DU-145 prostate = system: DU-145 prostate
MDA-N = system: MDA-N
NCI-H226 lung = system: NCI-H226 lung
PC-3 prostate = system: PC-3 prostate
ACHN renal = system: ACHN renal
SW-620 colon = system: SW-620 colon
NCI/ADR-RES ovarian = system: NCI/ADR-RES ovarian
HOP-62 NSCLC = system: HOP-62 NSCLC
RPMI-8226 leukemia = system: RPMI-8226 leukemia
HCT-116 colon = system: HCT-116 colon
MDA-MB-231 breast = system: MDA-MB-231 breast
UACC-257 melanoma = system: UACC-257 melanoma
A498 renal = system: A498 renal
K-562 leukemia = system: K-562 leukemia
M14 melanoma = system: M14 melanoma
RXF 393 renal = system: RXF 393 renal
CCRF-CEM leukemia = system: CCRF-CEM leukemia
A549 NSCLC = system: A549 NSCLC
SN12C renal = system: SN12C renal
UO-31 renal = system: UO-31 renal
SF-295 CNS = system: SF-295 CNS
OVCAR-5 ovarian = system: OVCAR-5 ovarian
SNB-75 CNS = system: SNB-75 CNS
SF-539 CNS = system: SF-539 CNS
HT29 colon = system: HT29 colon
NCI-H460 lung = system: NCI-H460 lung
SK-MEL-2 melanoma = system: SK-MEL-2 melanoma
OVCAR-4 ovarian = system: OVCAR-4 ovarian
EKVX NSCLC = system: EKVX NSCLC
UACC-62 melanoma = system: UACC-62 melanoma
786-0 renal = system: 786-0 renal
NCI-H522 lung = system: NCI-H522 lung
TK-10 renal = system: TK-10 renal
SF-268 CNS = system: SF-268 CNS
LOX IMVI melanoma = system: LOX IMVI melanoma
SK-MEL-5 melanoma = system: SK-MEL-5 melanoma
MALME-3M melanoma = system: MALME-3M melanoma
HS 578T breast = system: HS 578T breast
HL-60(TB) leukemia = system: HL-60(TB) leukemia

COc1ccc(/C=N/n2c(Cc3ccc(Cl)cc3)n[nH]c2=O)cc1
TGI (HOP-92 NSCLC): 44.7 µM
TGI (KM12 colon): > 100 µM
TGI (SNB-19 CNS): 35.6 µM
TGI (SR leukemia): > 100 µM
TGI (OVCAR-3 ovarian): > 100 µM
TGI (HCT-15 colon): > 100 µM
TGI (BT-549 breast): > 100 µM
TGI (OVCAR-8 ovarian): 74.6 µM
TGI (SK-OV-3 ovarian): > 100 µM
TGI (MOLT-4 leukemia): > 100 µM
TGI (IGROV1 ovarian): 48 µM
TGI (HCC-2998 colon): > 100 µM
TGI (SK-MEL-28 melanoma): > 100 µM
TGI (CAKI-1 renal): > 100 µM
TGI (U251 CNS): 33.6 µM
TGI (MCF7 breast): > 100 µM
TGI (COLO 205 colon): > 100 µM
TGI (T-47D breast): > 100 µM
TGI (MDA-MB-435): > 100 µM
TGI (NCI-H23 lung): > 100 µM
TGI (DU-145 prostate): > 100 µM
TGI (MDA-N): > 100 µM
TGI (NCI-H226 lung): > 100 µM
TGI (PC-3 prostate): > 100 µM
TGI (ACHN renal): > 100 µM
TGI (SW-620 colon): > 100 µM
TGI (NCI/ADR-RES ovarian): > 100 µM
TGI (HOP-62 NSCLC): 33.9 µM
TGI (RPMI-8226 leukemia): > 100 µM
TGI (HCT-116 colon): > 100 µM
TGI (MDA-MB-231 breast): 26.6 µM
TGI (UACC-257 melanoma): > 100 µM
TGI (A498 renal): > 100 µM
TGI (K-562 leukemia): > 100 µM
TGI (M14 melanoma): > 100 µM
TGI (RXF 393 renal): 35.1 µM
TGI (CCRF-CEM leukemia): > 100 µM
TGI (A549 NSCLC): > 100 µM
TGI (SN12C renal): > 100 µM
TGI (UO-31 renal): > 100 µM
TGI (SF-295 CNS): 49.9 µM
TGI (OVCAR-5 ovarian): > 100 µM
TGI (SNB-75 CNS): 38.5 µM
TGI (SF-539 CNS): > 100 µM
TGI (HT29 colon): 28.2 µM
TGI (NCI-H460 lung): > 100 µM
TGI (SK-MEL-2 melanoma): 61.5 µM
TGI (OVCAR-4 ovarian): > 100 µM
TGI (EKVX NSCLC): > 100 µM
TGI (UACC-62 melanoma): > 100 µM
TGI (786-0 renal): 54.6 µM

CN(C)CCNC(=O)c1cc([N+](=O)[O-])ccn1
TGI (NCI-H522 lung): 37.2 µM
TGI (KM12 colon): > 100 µM
TGI (SNB-19 CNS): > 100 µM
TGI (SR leukemia): > 100 µM
TGI (OVCAR-3 ovarian): 56.2 µM
TGI (HCT-15 colon): 41 µM
TGI (TK-10 renal): > 100 µM
TGI (BT-549 breast): > 100 µM
TGI (SF-268 CNS): 70.7 µM
TGI (OVCAR-8 ovarian): 76.4 µM
TGI (LOX IMVI melanoma): 96.9 µM
TGI (SK-OV-3 ovarian): > 100 µM
TGI (MOLT-4 leukemia): 49.3 µM
TGI (IGROV1 ovarian): > 100 µM
TGI (HCC-2998 colon): > 100 µM
TGI (SK-MEL-28 melanoma): > 100 µM
TGI (CAKI-1 renal): > 100 µM
TGI (U251 CNS): 92.8 µM
TGI (MCF7 breast): 31.3 µM
TGI (COLO 205 colon): 26.3 µM
TGI (T-47D breast): 78.1 µM
TGI (MDA-MB-435): 35.8 µM
TGI (NCI-H23 lung): 47.1 µM
TGI (DU-145 prostate): > 100 µM
TGI (MDA-N): 30.7 µM
TGI (NCI-H226 lung): > 100 µM
TGI (PC-3 prostate): 61.4 µM
TGI (ACHN renal): > 100 µM
TGI (SW-620 colon): > 100 µM
TGI (HOP-62 NSCLC): > 100 µM
TGI (SK-MEL-5 melanoma): 41.5 µM
TGI (RPMI-8226 leukemia): > 100 µM
TGI (HCT-116 colon): 61.4 µM
TGI (MDA-MB-231 breast): 58.1 µM
TGI (UACC-257 melanoma): 29.8 µM
TGI (A498 renal): > 100 µM
TGI (K-562 leukemia): 52.2 µM
TGI (M14 melanoma): > 100 µM
TGI (RXF 393 renal): > 100 µM
TGI (CCRF-CEM leukemia): 91.8 µM
TGI (MALME-3M melanoma): 28 µM
TGI (A549 NSCLC): > 100 µM
TGI (SN12C renal): 64 µM
TGI (HS 578T breast): > 100 µM
TGI (UO-31 renal): > 100 µM
TGI (HL-60(TB) leukemia): 46.4 µM
TGI (SF-295 CNS): 93.9 µM
TGI (OVCAR-5 ovarian): > 100 µM
TGI (SNB-75 CNS): > 100 µM
TGI (SF-539 CNS): 59.4 µM
TGI (HT29 colon): 48.1 µM
TGI (NCI-H460 lung): > 100 µM
TGI (SK-MEL-2 melanoma): 67.5 µM
TGI (OVCAR-4 ovarian): 43 µM
TGI (EKVX NSCLC): > 100 µM
TGI (UACC-62 melanoma): 42.3 µM
TGI (786-0 renal): > 100 µM
